Source: patent US10219516B2, “Molecules having pesticidal utility, and intermediates, compositions, and processes, related thereto” (priority 2015, dated 2019)
Read-outs that look alike come from different tables or passages of the source.

How the values were obtained:
Format in all cases: in vivo
[1] = test system: Cabbage Looper (Trichoplusia ni, TRIPNI); assay: Bioassay on Cabbage Looper (CL), 128-well diet tray assay; details: Trichoplusia ni
Procedure, shortened: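 Mortality of second instar larvae exposed to diet coated with 50 μg/cm^2 compound (acetone-water 90:10 vehicle, dried); 25° C., 5–7 days.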

[2] = test system: Yellow Fever Mosquito (Aedes aegypti, AEDSAE); assay: Bioassay on Yellow Fever Mosquito (YFM), 96-well plate larval assay; details: for YFM (Biological Results, rating): Species YFM (Yellow Fever Mosquito); for YFM rating: Yellow Fever Mosquito, 96-well plate larval assay
Procedure: Certain molecules disclosed in this document were tested against YFM using procedures described in the following paragraph. In the reporting of the results, the “GPA & YFM Rating Table” was used (See Table Section).
Master plates containing 400 μg of a molecule dissolved in 100 μL of dimethyl sulfoxide (DMSO) (equivalent to a 4000 ppm solution) are used. A master plate of assembled molecules contains 15 μL per well. To this plate, 135 μL of a 90:10 water/acetone mixture is added to each well. A robot is programmed to dispense 15 μL aspirations from the master plate into an empty 96-well shallow plate (“daughter” plate). There are 6 reps (“daughter” plates) created per master. The created “daughter” plates are then immediately infested with YFM larvae.
The day before plates are to be treated, mosquito eggs are placed in Millipore water containing liver powder to begin hatching (4 g. into 400 mL). After the “daughter” plates are created using the robot, they are infested with 220 μL of the liver powder/larval mosquito mixture (about 1 day-old larvae). After plates are infested with mosquito larvae, a non-evaporative lid is used to cover the plate to reduce drying. Plates are held at room temperature for 3 days prior to grading. After 3 days, each well is observed and scored based on mortality. The results are indicated in the table entitled “Table ABC: Biological Results” (See Table Section).

[3] = test system: Beet Armyworm (Spodoptera exigua, LAPHEG); assay: Bioassay on Beet Armyworm (BAW), 128-well diet tray assay
Procedure, shortened: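 Diet in each of eight wells received 50 μg/cm^2 of test molecule (90:10 acetone-water, dried), then one to five second-instar larvae were added. Mortality (%) was scored after five to seven days at 25° C. under 14:10 light-dark and averaged across the wells.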

[4] = Species CL (Cabbage Looper), read-out: CL (Biological Results, rating)
[5] = Species BAW (Beet Armyworm), read-out: BAW (Biological Results, rating)
[6] = Cabbage Looper, 128-well diet tray assay, read-out: CL rating
[7] = Beet Armyworm, 128-well diet tray assay, read-out: BAW rating

Structure (SMILES) | pest or weed control at 50 µg/cm2 [1, 4] | YFM (Biological Results, rating) [2] | pest or weed control at 50 µg/cm2 [3, 5] | pest or weed control at 50 µg/cm2 [1, 6] | YFM rating [2] | pest or weed control at 50 µg/cm2 [3, 7]
Nc1c(F)ccc(NC(=O)c2cc(NC(=O)[C@H]3[C@H](c4cc(Cl)cc(Br)c4)C3(Cl)Cl)ccc2Cl)c1F (relative stereo) [F339, N-(3-Amino-2,4-difluorophenyl)-5-(trans-3-(3-bromo-5-chlorophenyl)-2,2-dichlorocyclopropane-1-carboxamido)-2-chlorobenzamide] | 50 to 100% | A (80-100) | 50 to 100% | – | – | –
C/S(=N\C#N)c1ccc(NC(=O)c2cc(NC(=O)C3C(c4cc(Cl)cc(Cl)c4)C3(Cl)Cl)ccc2Cl)cc1 (stereo not drawn) [F495, trans-2-chloro-N-(4-(N-cyano-S-methylsulfinimidoyl)phenyl)-5-(2,2-dichloro-3-(3,5-dichlorophenyl)cyclopropane-1-carboxamido)benzamide] | – | – | – | 50 to 100% | A (80-100) | 50 to 100%
CC(=O)Nc1ccc(NC(=O)c2cc(NC(=O)[C@H]3[C@H](c4cc(Cl)c(Cl)c(Cl)c4)C3(Cl)Cl)ccc2Cl)c(F)c1 (relative stereo) [PF42, trans-N-(4-Acetamido-2-fluorophenyl)-2-chloro-5-(2,2-dichloro-3-(3,4,5-trichlorophenyl)cyclopropane-1-carboxamido)benzamide] | – | – | – | 50 to 100% | A (80-100) | 50 to 100%
CC(=O)Nc1ccc(NC(=O)c2cc(NC(=O)[C@H]3[C@H](c4cc(Cl)cc(Cl)c4)C3(Cl)Cl)cc(Cl)c2Cl)cc1 (relative stereo) [F248, trans-N-(4-Acetamidophenyl)-2,3-dichloro-5-(2,2-dichloro-3-(3,5-dichlorophenyl)cyclopropane-1-carboxamido)benzamide] | 50 to 100% | A (80-100) | 50 to 100% | – | – | –
N#Cc1cc(Cl)cc(C2C(C(=O)Nc3ccc(Cl)c(C(=O)Nc4ccc(F)cc4F)c3)C2(Cl)Cl)c1 (stereo not drawn) [F188, 2-Chloro-5-(trans)-2,2-dichloro-3-(3-chloro-5-cyanophenyl)cyclopropane-1-carboxamido)-N-(2,4-difluorophenyl)benzamide] | 50 to 100% | B (More than 0-Less than 80) | 50 to 100% | – | – | –
O=C(Nc1ccc(F)cc1F)c1cc(NC(=O)[C@H]2[C@H](c3ccc(Br)c(Br)c3)C2(Cl)Cl)ccc1Cl (relative stereo) [F532, 2-Chloro-5-(trans)-(2,2-dichloro-3-(3,4-dibromophenyl)cyclopropane-1-carboxamido)-N-(2,4-difluorophenyl)benzamide] | – | – | – | 50 to 100% | A (80-100) | 50 to 100%
C=C(c1ccc(NC(=O)c2cc(NC(=O)[C@H]3[C@H](c4cc(Cl)cc(Cl)c4)C3(Cl)Cl)ccc2Cl)c(C)c1)C(F)(F)F (relative stereo) [F258, 2-Chloro-5-(trans)-(2,2-dichloro-3-(3,5-dichlorophenyl)cyclopropane-1-carboxamido)-N-(2-methyl-4-(3,3,3-trifluoroprop-1-en-2-yl)phenyl)benzamide] | 50 to 100% | B (More than 0-Less than 80) | 50 to 100% | – | – | –
C=Cc1cc(Cl)cc([C@H]2[C@H](C(=O)Nc3ccc(Cl)c(C(=O)Nc4ccc(F)cc4F)c3)C2(Cl)Cl)c1 (relative stereo) [F352, 2-Chloro-5-(trans-2,2-dichloro-3-(3-chloro-5-vinylphenyl)cyclopropane-1-carboxamido)-N-(2,4-difluorophenyl)benzamide] | 50 to 100% | A (80-100) | 50 to 100% | – | – | –
Cc1cc(NC(=O)OC(C)(C)C)ccc1NC(=O)c1cc(NC(=O)[C@H]2[C@H](c3cc(Cl)cc(Cl)c3)C2(Cl)Cl)ccc1Cl [F275, tert-Butyl (4-(2-chloro-5-((1R,3R)-2,2-dichloro-3-(3,5-dichlorophenyl)cyclopropane-1-carboxamido)benzamido)-3-methylphenyl)carbamate] | 50 to 100% | A (80-100) | 50 to 100% | – | – | –
Cc1cc(N)ccc1NC(=O)c1cc(NC(=O)[C@H]2[C@H](c3ccc(F)c(Cl)c3)C2(Cl)Cl)ccc1Cl (relative stereo) [F228, trans-N-(4-Amino-2-methylphenyl)-2-chloro-5-(2,2-dichloro-3-(3-chloro-4-fluorophenyl)cyclopropane-1-carboxamido)benzamide] | 50 to 100% | A (80-100) | 50 to 100% | – | – | –
O=C(Nc1ncc(F)c(NCc2ccccc2)c1F)c1cc(NC(=O)[C@H]2[C@H](c3cc(Cl)cc(Cl)c3)C2(Cl)Cl)ccc1Cl [F524, N-(4-(Benzylamino)-3,5-difluoropyridin-2-yl)-2-chloro-5-((1R,3R)-2,2-dichloro-3-(3,5-dichlorophenyl)cyclopropane-1-carboxamido)benzamide] | – | – | – | 50 to 100% | A (80-100) | 50 to 100%
O=C(Nc1ccc(F)cc1F)c1cc(NC(=O)[C@@H]2[C@@H](c3ccc(Cl)c(Br)c3)C2(Cl)Cl)ccc1Cl [F573, 5-((1S,3S)-3-(3-Bromo-4-chlorophenyl)-2,2-dichlorocyclopropane-1-carboxamido)-2-chloro-N-(2,4-difluorophenyl)benzamide] | – | – | – | 50 to 100% | A (80-100) | 50 to 100%
Nc1c(F)cc(F)cc1NC(=O)c1cc(NC(=O)[C@H]2[C@H](c3ccc(F)c(Cl)c3)C2(Cl)Cl)ccc1Cl [F420, N-(2-Amino-3,5-difluorophenyl)-2-chloro-5-((1R,3R)-2,2-dichloro-3-(3-chloro-4-fluorophenyl)cyclopropane-1-carboxamido)benzamide] | – | – | – | 50 to 100% | A (80-100) | 50 to 100%
Cc1cc([C@H]2[C@H](C(=O)Nc3ccc(Cl)c(C(=O)Nc4ccc(F)cc4)c3)C2(Cl)Cl)cc(Cl)c1Cl (relative stereo) [F123, trans-2-Chloro-5-(2,2-dichloro-3-(3,4-dichloro-5-methylphenyl)cyclopropane-1-carboxamido)-N-(4-fluorophenyl)benzamide] | 50 to 100% | B (More than 0-Less than 80) | 50 to 100% | – | – | –
O=C(Nc1ccc(-n2cncn2)cc1)c1cc(NC(=O)[C@H]2[C@H](c3cc(Cl)cc(Cl)c3)C2(Cl)Cl)ccc1Cl (relative stereo) [PF57, trans-N-(4-(1H-1,2,4-Triazol-1-yl)phenyl)-2-chloro-5-(2,2-dichloro-3-(3,5-dichlorophenyl)cyclopropane-1-carboxamido)benzamide] | – | – | – | 50 to 100% | A (80-100) | 50 to 100%
O=C(Nc1ncc(F)cc1F)c1cc(NC(=O)[C@H]2[C@H](c3ccc(C(F)F)c(F)c3)C2(Cl)Cl)ccc1Cl (relative stereo) [F589, 2-chloro-5-(trans-2,2-dichloro-3-(4-(difluoromethyl)-3-fluorophenyl)cyclopropane-1-carboxamido)-N-(3,5-difluoropyridin-2-yl)benzamide] | – | – | – | 50 to 100% | A (80-100) | 50 to 100%
O=C(Nc1cc(Cl)cc(Cl)c1)c1cc(NC(=O)[C@H]2[C@H](c3cc(Cl)cc(Cl)c3)C2(Cl)Cl)ccc1Cl (relative stereo) [PF76, trans-2-Chloro-5-(2,2-dichloro-3-(3,5-dichlorophenyl)cyclopropane-1-carboxamido)-N-(3,5-dichlorophenyl)benzamide] | – | – | – | 50 to 100% | A (80-100) | 50 to 100%
CC(C)(C)OC(=O)N(C(=O)OC(C)(C)C)c1c(F)ccc(NC(=O)c2cc(NC(=O)[C@H]3[C@H](c4cccc(C(F)(F)F)c4)C3(Cl)Cl)ccc2Cl)c1F (relative stereo) [F516, trans-tert-Butyl-N-((tert-butoxy)carbonyl)-N-(3-(2-chloro-5-(2,2-dichloro-3-(3-(trifluoromethyl)phenyl)cyclopropane-1-carboxamido)benzamido)-2,6-difluorophenyl)carbamate] | – | – | – | 50 to 100% | A (80-100) | 50 to 100%
N#Cc1ccc(NC(=O)c2cc(NC(=O)[C@H]3[C@H](c4cc(Cl)cc(Cl)c4)C3(Cl)Cl)ccc2Cl)cc1C(F)(F)F (relative stereo) [F235, 2-Chloro-N-(4-cyano-3-(trifluoromethyl)phenyl)-5-(trans-2,2-dichloro-3-(3,5-dichlorophenyl)cyclopropane-1-carboxamido)benzamide] | 50 to 100% | A (80-100) | 50 to 100% | – | – | –
